What all share (assay type): in vivo
Test [1] concerns Meloidogyne incognita (RKNi). The test can be described thus: Pot trial: foliar spray in cotton against root-knot nematodes. The note with it: for performance in comparison to prior art tetramic acid compound spirotetramat: foliar 100 g/ha. An excerpt: POT TRIALS: Foliar spray in Cotton against nematodes Meloidogyne incognita (RKNi) using
12 1-L Clay pots were used per treatment. Cotton: Fibre Max 966 seeds were planted into pots and allowed to germinate and grow into young plants. The pots were artificially infested with nematodes (RKNi) 2 days after treatment.
APPLICATION: Compounds A and B and comparison Spirotetramat were sprayed as a normal foliar spray with hollow cone nozzles directed onto the plants. The compounds A, B and spirotetramat used were formulated as a suspension concentrate formulation at a dose rate of 100 g/ha. The compounds were diluted to a spray volume of approx […], which was used on the young plants. The treatment was applied when the plants had at least 2 true leaves.
Industry comparison Abamectin as a seed treatment was also included in the trials as a comparison. AVICTA® 500 FS from Syngenta AG was used at a rate of 500 g/L as a flowable concentrate (FS) formulation and applied to the seeds as a slurry to provide a rate of 0.15 mg of active ingredient per seed.
ASSESSMENT: Plants were removed 2 days after foliar spray treatment to assess penetration of the nematode in the roots with a dyeing method. Root galling/cysts were assessed according to standard practice.

Test [2] has as its system Heterodera schachtii Schmidt (SBCN). The test can be described thus: Pot trial: seed treatment and foliar spray in sugar beets, cysts per root system. Particulars: sugar beet, 25 days after inoculation. How it is done: POT TRIALS: Seed treatments and Foliar spray in sugar beets (Beta Vulgaris cv Impulse) against root nematodes Heterodera schachtii Schmidt (SBCN)
8×350 ml pots were used per treatment containing 350 ml soil (70% drench soil and 30% sand). 1 Seed per pot were planted into pot soil 0.5 cm deep and allowed to germinate and grow into young plants. Plants were kept under constant conditions of 25° C. during the day and 23° C. during the night with a humidity of 50-60% with 14 hour light periods. The pots were artificially infested with nematodes (SBCN) 7 days after sowing. For inoculation, 3 holes are drilled into the soil and 2 ml suspension of the nematodes per hole are applied.
APPLICATION: Compounds B and comparison Spirotetramat were sprayed as a normal foliar spray with hollow cone nozzles directed onto the plants. The compounds B and Spirotetramat used were formulated as a suspension concentrate formulation at a dose rate of 100 g/ha. The first foliar spray was applied 14 days after sowing (i.e. 7 days after inoculation). A second foliar spray was carried out 21 days after sowing (i.e. 14 days after inoculation).
Abamectin was used as a seed treatment. AVICTA® 400 FS from Syngenta AG was used at a rate of 400 g/L as a flowable concentrate (FS) formulation and applied to the seeds as a slurry to provide a rate of 0.6 mg and 1 mg of active ingredient per seed.
ASSESSMENT: Sugar beet plants were harvested 25 days after inoculation. Sugar beet root and shoot weights were assessed according to standard practice. Number of cysts per root system and as a function of root weight were assessed.

Test [3] shares this test system. The test can be described thus: Pot trial: seed treatment and foliar spray in sugar beets, tuber weight. The note with it: sugar beet, n = 8-10, harvest after 4 months. An excerpt:
POT TRIALS: Seed treatments and Foliar spray in sugar beets (Beta Vulgaris cv Impulse) against root nematodes Heterodera schachtii Schmidt (SBCN) (origin Münster, Germany)
15 7-L pots were used per treatment containing 7-L soil with an organic matter content of 2% (drench soil+sand). Seeds were planted into pot soil 1 cm deep and allowed to germinate and grow into young plants in a polytunnel. During the winter months, the pots were placed in a greenhouse. The pots were artificially infested with nematodes (SBCN) when preparing the soil for each pot and just before planting.
APPLICATION: Compounds A and comparison Spirotetramat were sprayed as a normal foliar spray with hollow cone nozzles directed onto the plants. The compounds A and Spirotetramat used were formulated as a suspension concentrate formulation at a dose rate of 100 g/ha. The first foliar spray was applied 14 days after sowing. A second foliar spray was carried out 3 weeks later.
Abamectin was used as a seed treatment. AVICTA® 500 FS from Syngenta AG was used at a rate of 500 g/L as a flowable concentrate (FS) formulation and applied to the seeds as a slurry to provide a rate of 0.6 mg of active ingredient per seed.
ASSESSMENT: Sugar beet plants were harvested after 4 months according to the prevailing temperatures and weather conditions. Sugar beet tuber weights were assessed according to standard practice.

Setting [4] is: foliar 100 g/ha at BBCH 14, artificial infestation 2 days after foliar spray.
Where [5] appears, read: foliar 100 g/ha, first application +14 days after sowing.
[6] abbreviates: seed treatment 0.15 mg/seed at BBCH 00, artificial infestation at crop stage BBCH 14.

`CCOC(=O)OC1=C(c2c(C)cc(Cl)cc2C)C(=O)N(C)C12CCN(OC)CC2` [Compound B]: the “performance in comparison to prior art tetramic acid compound spirotetramat” value in test [1] is “outperformed spirotetramat”. Moreover, in test [1] (setting [4]), the “% root length in cm compared to check (= 100%)” value (“% root length in cm” for short) is 213% and the “Number of root galls per plant” value is on record as 0.33. Further, in test [2] (Compound B 100 g/ha foliar), the “Efficacy in % of cyst nematodes per root system” value is given as 12%.

With `CCOC(=O)OC1=C(c2cc(C)ccc2C)C(=O)N[C@]12CC[C@@H](OC)CC2` [Spirotetramat], in test [1] (setting [4]), the “% root length in cm” value was determined as 100% and the “Number of root galls per plant” value came to 5.83. The “Mean tuber weight relative to inoculated check (%), Observed %” value in test [3] (setting [5]) was found to be 30.0%.

For `CCOC(=O)OC1=C(c2c(C)cc(Cl)cc2C)C(=O)NC12CCN(OC)CC2` [Compound A], the “performance in comparison to prior art tetramic acid compound spirotetramat” value in test [1] was “outperformed spirotetramat”. Moreover, in test [1] (setting [4]), the “% root length in cm” value was 204% and the “Number of root galls per plant” value was 1. Besides, the “Mean tuber weight relative to inoculated check (%), Observed %” value in test [3] (setting [5]) worked out at 17.0%.

On to Abamectin, for which, in test [1] (setting [6]), the “% root length in cm” value was 211%. Moreover, the “Number of root galls per plant” value in test [1] (setting [6]) amounted to 0.33. Also, the “Mean tuber weight relative to inoculated check (%), Observed %” value in test [3] (seed treatment 0.6 mg/seed at sowing) came out at 6.4%. Also, the “Efficacy in % of cyst nematodes per root system” value in test [2] (Abamectin 0.6 mg/seed seed treatment) came to 42%; in test [2] (Abamectin 1 mg/seed seed treatment) it was 60%.

The values are drawn from patent publication US9809593B2, “Use of tetramic acid derivatives as nematicides” (Syngenta Participations AG, priority 2013, dated 2017).
